The values below come from patent US9695168B2 (Incyte Corporation, priority 2014, dated 2017).

The assay has as its target LSD1 (Homo sapiens (Human), UniProt O60341). Kind of assay: LSD1 Histone Demethylase Biochemical Assay (LANCE LSD1/KDM1A demethylase assay). The settings on record: 1 nM LSD-1 enzyme, 1 hour preincubation at 25° C., 0.4 μM Biotin-labeled Histone H3 peptide substrate. Here is the method: LSD1 Histone Demethylase Biochemical Assay
LANCE LSD1/KDM1A demethylase assay-10 μL of 1 nM LSD-1 enzyme (ENZO BML-SE544-0050) in the assay buffer (50 mM Tris, pH 7.5, 0.01% Tween-20, 25 mM NaCl, 5 mM DTT) were preincubated for 1 hour at 25° C. with 0.8 μL compound/DMSO dotted in black 384 well polystyrene plates. […] Reactions were stopped by addition of 10 μL 1× LANCE Detection Buffer (PerkinElmer CR97-100) supplemented with 1.5 nM Eu-anti-unmodified H3K4 Antibody (PerkinElmer TRF0404), and 225 nM LANCE Ultra Streptavidin (PerkinElmer TRF102) along with 0.9 mM Tranylcypromine-HCl (Millipore 616431). After stopping the reactions plates were incubated for 30 minutes and read on a PHERAstar FS plate reader (BMG Labtech).
(In general: Time-resolved FRET reads energy transfer from a long-lived donor to a nearby acceptor.)

Broadly, the IC50 is the midpoint of a concentration-inhibition curve. Consider `CN1CCC[C@@H](COc2cc(-c3ccc(C#N)cc3)c(-c3ccc4c(c3)CN(C)C4=O)n3cncc23)C1` [Example 154, 4-(5-(2-methyl-1-oxo-2,3-dihydro-1H-isoindol-5-yl)-8-{[(3R)-1-methylpiperidin-3-yl]methoxy}imidazo[1,5-a]pyridin-6-yl)benzonitrile], for which the IC50 was in the range of 100 to 500 nM.

In turn, `CC(O)c1c(F)cc(-c2c(-c3ccc(C#N)cc3)cc(OC[C@@H]3CCCN(C)C3)c3cncn23)cc1F` (stereo partly drawn) [Example 124, 4-(5-[3,5-difluoro-4-(1-hydroxyethyl)phenyl]-8-{[(3R)-1-methylpiperidin-3-yl]methoxy}imidazo[1,5-a]pyridin-6-yl)benzonitrile] yielded an IC50 of 50 to 100 nM.

In turn, `CN1CCC[C@@H](COc2cc(-c3ccc(C#N)cc3)c(-c3ccc(C(C)(C)O)nc3)n3cncc23)C1` [Example 151, 4-(5-[6-(1-hydroxy-1-methylethyl)pyridin-3-yl]-8-{[(3R)-1-methylpiperidin-3-yl]methoxy}imidazo[1,5-a]pyridin-6-yl)benzonitrile] had an IC50 of 100 to 500 nM.

Regarding `CCc1ccc(-c2c(-c3ccc(C#N)cc3)cc(OC[C@@H]3CCCN(C)C3)c3cncn23)cn1` [Example 133, 4-(5-(6-ethylpyridin-3-yl)-8-{[(3R)-1-methylpiperidin-3-yl]methoxy}imidazo[1,5-a]pyridin-6-yl)benzonitrile], the IC50 was in the range of 50 to 100 nM.

Consider `N#Cc1ccc(-c2cc(OC[C@@H]3CCNC3)c3cncn3c2-c2ccc(N3CCOCC3)cc2)cc1` [Example 13, 4-{5-(4-morpholin-4-ylphenyl)-8-[(3R)-pyrrolidin-3-ylmethoxy]imidazo[1,5-a]pyridin-6-yl}benzonitrile], for which the IC50 was in the range of 50 to 100 nM.

The molecule `CN1CCC[C@@H](COc2cc(-c3ccc(C#N)cc3)c(-c3cnc4c(c3)nnn4C3CC3)n3cncc23)C1` [Example 156, (R)-4-(5-(3-cyclopropyl-3H-[1,2,3]triazolo[4,5-b]pyridin-6-yl)-8-((1-methylpiperidin-3-yl)methoxy)imidazo[1,5-a]pyridin-6-yl)benzonitrile] showed an IC50 of 100 to 500 nM.

`COc1ncc(-c2c(-c3ccc(C#N)cc3)nc(N3CCC(N(C)C)CC3)c3cncn23)cn1` [Example 150, 4-[8-[4-(dimethylamino)piperidin-1-yl]-5-(2-methoxypyrimidin-5-yl)imidazo[1,5-a]pyrazin-6-yl]benzonitrile] yielded a half-maximal inhibitory concentration (IC50) of 100 to 500 nM.

With `N#Cc1ccc(-c2cc(OC[C@@H]3CCNC3)c3cncn3c2-c2ccc(Cl)cc2)cc1` [Example 6, 4-{5-(4-chlorophenyl)-8-[(3R)-pyrrolidin-3-ylmethoxy]imidazo[1,5-a]pyridin-6-yl}benzonitrile], the half-maximal inhibitory concentration (IC50) is 50 to 100 nM.

With `COC(=O)N(C)c1ccc(-c2c(-c3ccc(C#N)cc3)nc(OC[C@@H]3CCCN(C)C3)c3cncn23)cn1` [Example 49], the half-inhibitory concentration (IC50) lay within 100 to 500 nM.

The molecule `CC(C)n1nnc2cc(-c3c(-c4ccc(C#N)cc4)cc(OC[C@@H]4CCCN(C)C4)c4cncn34)cnc21` [Example 155, (R)-4-(5-(3-isopropyl-3H-[1,2,3]triazolo[4,5-b]pyridin-6-yl)-8-((1-methylpiperidin-3-yl)methoxy)imidazo[1,5-a]pyridin-6-yl)benzonitrile] yielded an IC50 of 100 to 500 nM.

Consider `CCN1CCC[C@@H](COc2nc(-c3ccc(C#N)cc3)c(-c3ccc4c(c3)CC(=O)N4C)n3cncc23)C1` [Example 110, 4-[8-{[(3R)-1-ethylpiperidin-3-yl]methoxy}-5-(1-methyl-2-oxo-2,3-dihydro-1H-indol-5-yl)imidazo[1,5-a]pyrazin-6-yl]benzonitrile], for which the IC50 fell in the range of 50 to 100 nM.

`CCN1CCC[C@@H](COc2cc(-c3ccc(C#N)cc3)c(-c3cnc4c(c3)CCCO4)n3cncc23)C1` [Example 68, (R)-4-(5-(3,4-dihydro-2H-pyrano[2,3-b]pyridin-6-yl)-8-((1-ethylpiperidin-3-yl)methoxy)imidazo[1,5-a]pyridin-6-yl)benzonitrile] showed an IC50 of 50 to 100 nM.

For `N#Cc1ccc(-c2cc(OC[C@@H]3CCNC3)c3cncn3c2-c2cnn(C3CCC3)c2)cc1` [Example 7, 4-{5-(1-cyclobutyl-1H-pyrazol-4-yl)-8-[(3R)-pyrrolidin-3-ylmethoxy]imidazo[1,5-a]pyridin-6-yl}benzonitrile], the concentration for half-maximal inhibition (IC50) lay within 50 to 100 nM.

`Cc1ncc(-c2c(-c3ccc(C#N)cc3)nc(N3CCC(N(C)C)CC3)c3cncn23)cc1C(F)F` [Example 140, 4-{5-[5-(difluoromethyl)-6-methylpyridin-3-yl]-8-[4-(dimethylamino)piperidin-1-yl]imidazo[1,5-a]pyrazin-6-yl}benzonitrile] showed a concentration for half-maximal inhibition (IC50) of 50 to 100 nM.

For `CN1CCC[C@@H](COc2cc(-c3ccc(C#N)cc3)c(-c3cnc4cccnc4c3)n3cncc23)C1` [Example 59, (R)-4-(8-((1-methylpiperidin-3-yl)methoxy)-5-(1,5-naphthyridin-3-yl)imidazo[1,5-a]pyridin-6-yl)benzonitrile], the IC50 was in the range of 100 to 500 nM.

The molecule `Cn1ncc2cc(-c3c(-c4ccc(C#N)cc4)nc(OC[C@@H]4CCCN(CC(C)(C)O)C4)c4cncn34)cnc21` [Example 41, 4-[8-{[(3R)-1-(2-hydroxy-2-methylpropyl)piperidin-3-yl]methoxy}-5-(1-methyl-1H-pyrazolo[3,4-b]pyridin-5-yl)imidazo[1,5-a]pyrazin-6-yl]benzonitrile] yielded an IC50 of 50 to 100 nM.

Regarding `CN1CCC[C@@H](COc2nc(-c3ccc(C#N)cc3)c(-c3ccc4c(c3)n(C)c(=O)n4C)n3cncc23)C1` [Example 26, 4-(5-(1,3-dimethyl-2-oxo-2,3-dihydro-1H-benzimidazol-5-yl)-8-{[(3R)-1-methylpiperidin-3-yl]methoxy}imidazo[1,5-a]pyrazin-6-yl)benzonitrile], the IC50 was 100 to 500 nM.

For `CN1CCC[C@@H](COc2nc(-c3ccc(C#N)cc3)c(-c3ccc4ncccc4c3)n3cncc23)C1` [Example 31, 4-(8-{[(3R)-1-methylpiperidin-3-yl]methoxy}-5-quinolin-6-ylimidazo[1,5-a]pyrazin-6-yl)benzonitrile], the IC50 fell in the range of 50 to 100 nM.

`CN(C)[C@H]1CCN(c2nc(-c3ccc(C#N)cc3)c(-c3ccc4c(c3)oc(=O)n4C)n3cncc23)C1` [Example 112, (S)-4-(8-(3-(dimethylamino)pyrrolidin-1-yl)-5-(3-methyl-2-oxo-2,3-dihydrobenzo[d]oxazol-6-yl)imidazo[1,5-a]pyrazin-6-yl)benzonitrile] had an IC50 of 50 to 100 nM.

Regarding `CN1CCC[C@@H](COc2cc(-c3ccc(C#N)cc3)c(-c3cnc4ccoc4c3)n3cncc23)C1` [Example 60, (R)-4-(5-(furo[3,2-b]pyridin-6-yl)-8-((1-methylpiperidin-3-yl)methoxy)imidazo[1,5-a]pyridin-6-yl)benzonitrile], the IC50 was 50 to 100 nM.

With `CN1CCC[C@@H](COc2nc(-c3ccc(C#N)cc3)c(-c3ccc4c(c3)OCC(=O)N4C)n3cncc23)C1` [Example 25, 4-(5-(4-methyl-3-oxo-3,4-dihydro-2H-1,4-benzoxazin-7-yl)-8-{[(3R)-1-methylpiperidin-3-yl]methoxy}imidazo[1,5-a]pyrazin-6-yl)benzonitrile], the IC50 fell in the range of 50 to 100 nM.

Consider `CCN1CCC[C@@H](COc2cc(-c3ccc(C#N)cc3)c(-c3cnc4c(c3)ncn4C)n3cncc23)C1` [Example 66, (R)-4-(8-((1-ethylpiperidin-3-yl)methoxy)-5-(3-methyl-3H-imidazo[4,5-b]pyridin-6-yl)imidazo[1,5-a]pyridin-6-yl)benzonitrile], for which the IC50 was in the range of 50 to 100 nM.

For `CN1CCC[C@@H](COc2nc(-c3ccc(C#N)cc3)c(-c3ccc4c(c3)CCC(=O)N4C)n3cncc23)C1` [Example 24, 4-(5-(1-methyl-2-oxo-1,2,3,4-tetrahydroquinolin-6-yl)-8-{[(3R)-1-methylpiperidin-3-yl]methoxy}imidazo[1,5-a]pyrazin-6-yl)benzonitrile], the IC50 is 100 to 500 nM.

Molecule `COc1ncc(-c2c(-c3ccc(C#N)cc3)cc(OC[C@@H]3CCCN(C)C3)c3cncn23)cc1N` [Example 69, (R)-4-(5-(5-amino-6-methoxypyridin-3-yl)-8-((1-methylpiperidin-3-yl)methoxy)imidazo[1,5-a]pyridin-6-yl)benzonitrile] showed an IC50 of 50 to 100 nM.

On to `CC(O)CN1CCC[C@@H](COc2nc(-c3ccc(C#N)cc3)c(-c3cnc4c(cnn4C)c3)n3cncc23)C1` (stereo partly drawn) [Example 39, 4-[8-{[(3R)-1-(2-hydroxypropyl)piperidin-3-yl]methoxy}-5-(1-methyl-1H-pyrazolo[3,4-b]pyridin-5-yl)imidazo[1,5-a]pyrazin-6-yl]benzonitrile], for which the IC50 lay within 100 to 500 nM.

Regarding `CC(C)(C)OC(=O)N1CC=C(c2c(-c3ccc(C#N)cc3)cc(OC[C@@H]3CCNC3)c3cncn23)CC1` [Example 10, tert-butyl 4-{6-(4-cyanophenyl)-8-[(3R)-pyrrolidin-3-ylmethoxy]imidazo[1,5-a]pyridin-5-yl}-3,6-dihydropyridine-1(2H)-carboxylate], the IC50 is 100 to 500 nM.

Take `CC(O)CN1CCC[C@@H](COc2cc(-c3ccc(C#N)cc3)c(-c3cnc4ccoc4c3)n3cncc23)C1` (stereo partly drawn) [Example 119, 4-(5-(furo[3,2-b]pyridin-6-yl)-8-(((3R)-1-(2-hydroxypropyl)piperidin-3-yl)methoxy)imidazo[1,5-a]pyridin-6-yl)benzonitrile]: the IC50 was 50 to 100 nM.

With `CN1CCC[C@@H](COc2cc(-c3ccc(C#N)cc3)c(-c3cnc4c(c3)CCCO4)n3cncc23)C1` [Example 61, (R)-4-(5-(3,4-dihydro-2H-pyrano[2,3-b]pyridin-6-yl)-8-((1-methylpiperidin-3-yl)methoxy)imidazo[1,5-a]pyridin-6-yl)benzonitrile], the IC50 lay within 50 to 100 nM.
